Measured values reported in patent US10233328B2, “Sol-gel based matrix” (KØBENHAVNS UNIVERSITET, priority 2013, dated 2019).

What was measured:
[1] = pH titration of sensor spots (pKa of the sensor); type: physicochemical; details: dye in ETEOS-GPTMS matrix, Table 2
Procedure: To perform titrations rapidly a set-up employing an epi-fluorescence microscopy equipped with a halogen light source and an Ocean Optics spectrometer for detection. The sensor spot was attached to a homemade holder, which kept the spot in place in a large chamber filled with water, where pH was externally monitored with a pH meter. Alternatively the sensor spot was affixed on the wall of a cuvette and the titration was performed in a Perkin Elmer LS50B, controlling the pH between measurements.
The performance of the sensors is shown as titration curves in FIG. 4. It is clear that a pH-dependent sensor action is achieved for these two sensor systems.

[2] = Leakage of dye from ETEOS-GPTMS matrix into surrounding PBS (physical stability); type: physicochemical; details: for Leaking: fluorescence Intensity (a.u.): PBS pH 7.0 surrounding coated glass slide
Procedure: The photostability was followed by constant illumination of the sensor spot with wavelength selected light from a xenon lamp. The physical stability was tested by immersing the sensor spot in low or high pH aqueous solution, and monitoring the fluorescence from the solution.
Table 2. Leaking of 5(6)-carboxyfluorescein (CF), DMQA-2, DAOTA-1, and 6-stearamido-fluorescein (AF18) from the ETEOS-GPTMS matrix given as fluorescence intensity measured from a PBS solution at pH 7 surrounding a glass slide coated with ETEOS-GPTMS-dye matrix using maximum sized slit widths at the emission and excitation sites of the spectrometer.
All the leakage data is compiled in table 2.

pKa [1]	Leaking: fluorescence Intensity (a.u.) ([2]; leaking period 4 d)	Leakage from ETEOS-GPTMS matrix (in words) ([2]; PBS pH 7.0)	Leaking: fluorescence Intensity (a.u.) ([2]; leaking period 2 h, half the slit widths used for DMQA-2 and DAOTA-1)	Compound
6.5	100			CCCCCCCCCCCCCCCCCC(=O)Nc1ccc2c(c1)C1(OC2=O)c2ccc(O)cc2Oc2cc(O)ccc21 [AFC18, 6-stearamido-fluorescein]
6.5		extensive leakage	>>800 a.u.	5(6)-carboxyfluorescein [CF]
